Results on 25 compounds are retold here after patent US20230095520A1, “PHARMACEUTICAL COMPOSITION FOR PREVENTING OR TREATING CANCER COMPRISING AZOLE DERIVATIVES OR PHARMACEUTICALLY ACCEPTABLE SALT THEREOF” (Yungjin Pharm. Co., Ltd., priority 2020, published 2023).

pIC50: −log10 of the molar value.

For one assay, the system named is MV-4-11 cells. Kind of assay: MV-4-11 cell proliferation inhibition (CCK-8). Conditions: Homo sapiens, 72 hours; for inhibition at 0.1 µM: MV4-11, MV-4-11, compound concentration 100 nM, read-out: Inhibition rate (%); for pIC50: MV4-11, MV-4-11 proliferation. In kind it is cell-based. The protocol: MV-4-11 cells are one of the acute myeloid leukemia cells with a Fms-like tyrosine kinase (FLT3) gene mutation, and these cells are used to test inhibition of proliferation and survival of leukemia cells.
MV-4-11 cells cultured in a 96-well cell culture plate were treated with the compound of the present invention and cultured for 72 hours. Thereafter, the antiproliferative effect of the compound was assayed by the CCK-8 method using a tetrazolium salt.

Assay [1] concerns the target T1, Recombinant purified human CDK7 (Homo sapiens, UniProt P50613).
T1 construct: purchased ThermoFisher PV3868
Kind of assay: CDK7 activity inhibition, ADP-Glo kinase assay. In kind it is biochemical. Conditions: ATP 90 μM, MBP substrate, 2 hours 30° C. The protocol: Recombinant purified human CDK7 (ThermoFisher, PV3868) and ADP Glo Kinase Assay Kit (Promega, V9102) were used. CDK7 was diluted with 1× kinase reaction buffer (40 mM Tris-Cl, pH 7.5, 20 mM MgCl2, 0.1 mg/ml BSA and 50 μM DTT) and added to a 96 well plate (CDK7 final concentration per reaction: 50 ng). It was finally treated with the compound of the present invention to a 1% DMSO aqueous solution, and a substrate cocktail containing ATP (final concentration of 90 μM) and 0.2 μg/μl MBP (myelin basic protein) in a total of 25 μl reaction mass was added to a 96 well plate, thereby initiating the enzymatic reaction. After 2 hours of incubation (30° C.), an equal volume (25 μl per reaction) of ADP Glo was added and incubated at room temperature for 60 minutes (30° C.). Thereafter, kinase detection reagent (50 μl per reaction) was added and incubated at room temperature for 30 minutes (30° C.). The kinase activity was measured by the chemiluminescence method according to the ADP Glo Kinase Assay Kit instruction manual, and the CDK7 inhibitory activity of the compounds of the present invention was calculated.

T1 sequence (P50613 whole entry): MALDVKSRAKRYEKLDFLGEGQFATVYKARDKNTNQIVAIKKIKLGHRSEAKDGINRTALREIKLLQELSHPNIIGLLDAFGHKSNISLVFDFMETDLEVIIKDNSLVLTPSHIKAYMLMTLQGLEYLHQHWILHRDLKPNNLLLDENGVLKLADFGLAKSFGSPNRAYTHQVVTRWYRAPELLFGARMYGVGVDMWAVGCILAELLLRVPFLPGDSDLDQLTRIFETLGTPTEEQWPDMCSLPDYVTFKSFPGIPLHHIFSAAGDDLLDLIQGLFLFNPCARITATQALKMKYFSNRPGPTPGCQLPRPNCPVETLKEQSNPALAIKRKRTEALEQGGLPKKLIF
T1 sequence (P51946 whole entry partner): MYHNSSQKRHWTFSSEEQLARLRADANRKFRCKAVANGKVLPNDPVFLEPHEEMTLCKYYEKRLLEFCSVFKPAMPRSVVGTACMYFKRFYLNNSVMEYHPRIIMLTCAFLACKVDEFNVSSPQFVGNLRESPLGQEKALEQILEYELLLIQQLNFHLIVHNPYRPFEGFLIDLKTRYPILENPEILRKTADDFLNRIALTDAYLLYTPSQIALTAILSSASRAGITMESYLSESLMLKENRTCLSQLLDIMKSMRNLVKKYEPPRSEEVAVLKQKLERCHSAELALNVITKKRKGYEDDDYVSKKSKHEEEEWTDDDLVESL
T1 sequence (P51948 whole entry partner): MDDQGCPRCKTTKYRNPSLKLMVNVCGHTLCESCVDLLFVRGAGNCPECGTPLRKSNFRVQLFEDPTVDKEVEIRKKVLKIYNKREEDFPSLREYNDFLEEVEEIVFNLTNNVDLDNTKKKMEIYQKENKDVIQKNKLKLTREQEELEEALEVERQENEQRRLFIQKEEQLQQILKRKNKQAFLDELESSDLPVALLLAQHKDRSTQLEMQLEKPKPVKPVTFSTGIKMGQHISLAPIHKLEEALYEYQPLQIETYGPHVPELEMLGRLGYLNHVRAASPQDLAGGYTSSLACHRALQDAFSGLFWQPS

With `C=CC(=O)Nc1ccc(-c2cccc([C@H](C)C(=O)Nc3ncc(C4CC4)s3)c2)cn1` [Compound 14], in the assay with MV-4-11 cells, the inhibition at 0.1 µM came out at 100% and the pIC50 is 7.34. For the same compound, the IC50 in assay [1] came to 28 nM.

Regarding `C[C@H](C(=O)Nc1ncc(C2CC2)s1)c1cccc(-c2ccc(NC(=O)/C=C/CN(C)C)nc2)c1` [Compound 15], the inhibition at 0.1 µM in the assay on MV-4-11 cells stood at 100%. Moreover, in assay [1], the IC50 worked out at 11 nM.

Turning to `C=CC(=O)Nc1cnc(-c2cccc([C@H](C)C(=O)Nc3ncc(C(F)(F)F)s3)c2)cn1` [Compound 37, (S)-N-(5-(3-(1-oxo-1-((5-(trifluoromethyl)thiazol-2-yl)amino)propan-2-yl)phenyl)pyrazin-2-yl)acrylamide], the inhibition at 0.1 µM in the assay on MV-4-11 cells is 100%. The IC50 in assay [1] came to 17.8 nM.

`C=CC(=O)Nc1cnc(-c2cncc([C@H](C)C(=O)Nc3ncc(C(F)(F)F)s3)c2)cn1` [Compound 52, (S)-N-(5-(5-(1-oxo-1-((5-(trifluoromethyl)thiazol-2-yl)amino)propan-2-yl)pyridin-3-yl)pyrazin-2-yl)acrylamide] showed a pIC50 in the assay with MV-4-11 cells of 8.35. Moreover, the IC50 in assay [1] was 19.2 nM.

Consider `CC(C(=O)Nc1ncc(C(F)(F)F)s1)c1cncc(-c2cnc(NC(=O)/C=C/CN(C)C)cn2)c1` (stereo not shown) [Compound 63, (E)-4-(dimethylamino)-N-(5-(5-(1-oxo-1-((5-(trifluoromethyl)thiazol-2-yl)amino)propan-2-yl)pyridin-3-yl)pyrazin-2-yl)but-2-enamide], for which the negative-log IC50 (pIC50) with MV-4-11 cells was 8.28. Also, the IC50 in assay [1] amounted to 17.8 nM.

In turn, `CC(C(=O)Nc1ncc(Cl)s1)c1cncc(-c2cnc(NC(=O)/C=C/CN(C)C)cn2)c1` (stereo not shown) [Compound 73, (E)-N-(5-(5-(1-((5-chlorothiazol-2-yl)amino)-1-oxopropan-2-yl)pyridin-3-yl)pyrazin-2-yl)-4-(dimethylamino)but-2-enamide] showed a pIC50 with MV-4-11 cells of 7.96. The IC50 in assay [1] came to 43.4 nM.

`CC(C(=O)Nc1ncc(C(F)(F)F)s1)c1cncc(-c2cnc(NC(=O)/C=C/CN3CCOCC3)cn2)c1` (stereo not shown) [Compound 74, (E)-4-morpholino-N-(5-(5-(1-oxo-1-((5-(trifluoromethyl)thiazol-2-yl)amino)propan-2-yl)pyridin-3-yl)pyrazin-2-yl)but-2-enamide] had a pIC50 in the assay with MV-4-11 cells of 7.52. In assay [1], the IC50 came out at 77 nM.

Turning to `C=CC(=O)Nc1ccc(-c2cncc(C(C)C(=O)Nc3ncc(C(F)(F)F)s3)c2)cn1` (stereo not shown) [Compound 82, N-(5′-(1-oxo-1-((5-(trifluoromethyl)thiazol-2-yl)amino)propan-2-yl)-[3,3′-bipyridin]-6-yl)acrylamide], the pIC50 in the assay with MV-4-11 cells is 8.04. Moreover, the IC50 in assay [1] turned out to be 36 nM.

For the compound `CC(C(=O)Nc1ncc(C(F)(F)F)s1)c1cncc(-c2cnc(NC(=O)/C=C/CN3CC4CC3CO4)cn2)c1` (stereo not shown) [Compound 83, (E)-4-(2-oxa-5-azabicyclo[2.2.1]heptan-5-yl)-N-(5-(5-(1-oxo-1-((5-(trifluoromethyl)thiazol-2-yl)amino)propan-2-yl)pyridin-3-yl)pyrazin-2-yl)but-2-enamide], the pIC50 with MV-4-11 cells was 8.16. For the same compound, the half-inhibitory concentration (IC50) in assay [1] amounted to 23 nM.

On to `C[C@H](C(=O)Nc1ncc(C(F)(F)F)s1)c1cccc(-c2cnc(NC(=O)/C=C/CN3CC4CC3CO4)cn2)c1` (stereo partly drawn) [Compound 96, (E)-4-(2-oxa-5-azabicyclo[2.2.1]heptan-5-yl)-N-(5-(3-((S)-1-oxo-1-((5-(trifluoromethyl)thiazol-2-yl)amino)propan-2-yl)phenyl)pyrazin-2-yl)but-2-enamide], for which the pIC50 in the assay with MV-4-11 cells was 7.36. Also, the IC50 in assay [1] is 7.6 nM.

As to `C[C@H](C(=O)Nc1ncc(C(F)(F)F)s1)c1cccc(-c2cnc(NC(=O)/C=C/CN(C)C)c(F)c2)c1` [Compound 99, (S,E)-4-(dimethylamino)-N-(3-fluoro-5-(3-(1-oxo-1-((5-(trifluoromethyl)thiazol-2-yl)amino)propan-2-yl)phenyl)pyridin-2-yl)but-2-enamide], the pIC50 in the assay on MV-4-11 cells was 7.90. For the same compound, the IC50 in assay [1] turned out to be 7.6 nM.

Take `C[C@H](C(=O)Nc1ncc(C(F)(F)F)s1)c1cccc(-c2cnc(NC(=O)/C=C/CN(C)C)c(C#N)c2)c1` [Compound 101, (S,E)-N-(3-cyano-5-(3-(1-oxo-1-((5-(trifluoromethyl)thiazol-2-yl)amino)propan-2-yl)phenyl)pyridin-2-yl)-4-(dimethylamino)but-2-enamide]: in the assay on MV-4-11 cells, the pIC50 was 7.91. For the same compound, the IC50 in assay [1] turned out to be 4.3 nM.

`C[C@H](C(=O)Nc1ncc(C2CCC2)s1)c1cccc(-c2cnc(NC(=O)/C=C/CN(C)C)cn2)c1` [Compound 104, (S,E)-N-(5-(3-(1-((5-cyclobutylthiazol-2-yl)amino)-1-oxopropan-2-yl)phenyl)pyrazin-2-yl)-4-(dimethylamino)but-2-enamide] showed a pIC50 in the assay on MV-4-11 cells of 7.51. Also, in assay [1], the IC50 was 9 nM.

`CC(C(=O)Nc1ncc(C(F)(F)F)s1)c1cncc(-c2cnc(NC(=O)/C=C/CN(C)C)c(C#N)c2)c1` (stereo not shown) [Compound 108, (E)-N-(5-cyano-5′-(1-oxo-1-((5-(trifluoromethyl)thiazol-2-yl)amino)propan-2-yl)-[3,3′-bipyridin]-6-yl)-4-(dimethylamino)but-2-enamide] gave a pIC50 in the assay on MV-4-11 cells of 8.15. The IC50 in assay [1] came to 10.5 nM.

For the compound `CCc1cnc(NC(=O)[C@@H](C)c2cccc(-c3cnc(NC(=O)/C=C/CN4CC5CC4CO5)c(C#N)c3)c2)s1` (stereo partly drawn) [Compound 123, (E)-4-(2-oxa-5-azabicyclo[2.2.1]heptan-5-yl)-N-(3-cyano-5-(3-((S)-1-((5-ethylthiazol-2-yl)amino)-1-oxopropan-2-yl)phenyl)pyridin-2-yl)but-2-enamide], in assay [1], the IC50 worked out at 5.3 nM.

As to `C=CC(=O)Nc1ncc(-c2cccc([C@H](C)C(=O)Nc3ncc(C(F)(F)F)s3)c2)cc1C#N` [Compound 124, (S)-N-(3-cyano-5-(3-(1-oxo-1-((5-(trifluoromethyl)thiazol-2-yl)amino)propan-2-yl)phenyl)pyridin-2-yl)acrylamide], the IC50 in assay [1] is 4.5 nM.

In the case of `CCc1cnc(NC(=O)[C@@H](C)c2cccc(-c3cnc(NC(=O)/C=C/CN(C)C)c(C)c3)c2)s1` [Compound 125, (S,E)-4-(dimethylamino)-N-(5-(3-(1-((5-ethylthiazol-2-yl)amino)-1-oxopropan-2-yl)phenyl)-3-methylpyridin-2-yl)but-2-enamide], the IC50 in assay [1] turned out to be 13.2 nM.

Consider `CCc1cnc(NC(=O)C2(c3cccc(-c4cnc(NC(=O)/C=C/CN(C)C)c(C#N)c4)c3)CC2)s1` [Compound 128, (E)-1-(3-(5-cyano-6-(4-(dimethylamino)but-2-enamido)pyridin-3-yl)phenyl)-N-(5-ethylthiazol-2-yl)cyclopropane-1-carboxamide], for which the IC50 in assay [1] worked out at 50 nM.

`CCc1cnc(NC(=O)C(CC)c2cccc(-c3ccc(NC(=O)/C=C/CN(C)C)cn3)c2)s1` (stereo not shown) [Compound 131, (E)-4-(dimethylamino)-N-(6-(3-(1-((5-ethylthiazol-2-yl)amino)-1-oxobutan-2-yl)phenyl)pyridin-3-yl)but-2-enamide]: in assay [1], the IC50 is 59 nM.

As for `CCc1cnc(NC(=O)[C@@H](C)c2cccc(-c3cnc(N(C)C(=O)/C=C/CN(C)C)c(C#N)c3)c2)s1` [Compound 132, (S,E)-N-(3-cyano-5-(3-(1-((5-ethylthiazol-2-yl)amino)-1-oxopropan-2-yl)phenyl)pyridin-2-yl)-4-(dimethylamino)-N-methylbut-2-enamide], the IC50 in assay [1] is 6.6 nM.

For `CCc1cnc(NC(=O)C2(c3cccc(-c4cnc5c(c4)CCN5C(=O)/C=C/CN(C)C)c3)CC2)s1` [Compound 133, (E)-1-(3-(1-(4-(dimethylamino)but-2-enoyl)-2,3-dihydro-1H-pyrrolo[2,3-b]pyridin-5-yl)phenyl)-N-(5-ethylthiazol-2-yl)cyclopropane-1-carboxamide], the IC50 in assay [1] worked out at 47 nM.

On to `CCc1cnc(NC(=O)[C@@H](C)c2cccc(-c3cnc(NC(=O)/C=C/CN4CCOCC4)c(C#N)c3)c2)s1` [Compound 135, (S,E)-N-(3-cyano-5-(3-(1-((5-ethylthiazol-2-yl)amino)-1-oxopropan-2-yl)phenyl)pyridin-2-yl)-4-morpholinobut-2-enamide], for which the IC50 in assay [1] came out at 13 nM.

With `CCc1cnc(NC(=O)[C@@H](C)c2cccc(-c3cnc(NC(=O)/C=C/CN4CCN(C)CC4)c(C#N)c3)c2)s1` [Compound 136, (S,E)-N-(3-cyano-5-(3-(1-((5-ethylthiazol-2-yl)amino)-1-oxopropan-2-yl)phenyl)pyridin-2-yl)-4-(4-methylpiperazin-1-yl)but-2-enamide], in assay [1], the IC50 was determined as 33 nM.

Consider `CCc1cnc(NC(=O)C(C)c2cncc(-c3cnc(NC(=O)/C=C/CN(C)C)c(C#N)c3)c2)s1` (stereo not shown) [Compound 137, (E)-N-(5-cyano-5′-(1-((5-ethylthiazol-2-yl)amino)-1-oxopropan-2-yl)-[3,3′-bipyridin]-6-yl)-4-(dimethylamino)but-2-enamide], for which the concentration for half-maximal inhibition (IC50) in assay [1] turned out to be 13 nM.

For `CCc1cnc(NC(=O)C(CC)c2cccc(-c3cnc(NC(=O)/C=C/CN(C)C)c(C#N)c3)c2)s1` (stereo not shown) [Compound 138, (E)-N-(3-cyano-5-(3-(1-((5-ethylthiazol-2-yl)amino)-1-oxobutan-2-yl)phenyl)pyridin-2-yl)-4-(dimethylamino)but-2-enamide], the IC50 in assay [1] turned out to be 8 nM.
